According to patent US20180015051A1, “MODULATORS OF ALPHA-DICARBONYL DETOXIFICATION AND THEIR USE FOR THE TREATMENT OF DIABETIC PATHOLOGIES” (Buck Institute for Research on Aging, priority 2016, published 2018):

Assays:
[1] = biological target: T1, TRPA1 (worm) (Caenorhabditis elegans, UniProt Q18297); experiment: Calcium imaging of HEK293T cells (Rhod-3 AM), worm TRPA1; assay type: cell-based, C. elegans; conditions: HEK293T transfected with worm TRPA1 and GFP; 100 pM or 1 mM MGO
T1 construct: expressed in transfected cells; host or cells: HEK293T
T1 sequence (Q18297 1-1211): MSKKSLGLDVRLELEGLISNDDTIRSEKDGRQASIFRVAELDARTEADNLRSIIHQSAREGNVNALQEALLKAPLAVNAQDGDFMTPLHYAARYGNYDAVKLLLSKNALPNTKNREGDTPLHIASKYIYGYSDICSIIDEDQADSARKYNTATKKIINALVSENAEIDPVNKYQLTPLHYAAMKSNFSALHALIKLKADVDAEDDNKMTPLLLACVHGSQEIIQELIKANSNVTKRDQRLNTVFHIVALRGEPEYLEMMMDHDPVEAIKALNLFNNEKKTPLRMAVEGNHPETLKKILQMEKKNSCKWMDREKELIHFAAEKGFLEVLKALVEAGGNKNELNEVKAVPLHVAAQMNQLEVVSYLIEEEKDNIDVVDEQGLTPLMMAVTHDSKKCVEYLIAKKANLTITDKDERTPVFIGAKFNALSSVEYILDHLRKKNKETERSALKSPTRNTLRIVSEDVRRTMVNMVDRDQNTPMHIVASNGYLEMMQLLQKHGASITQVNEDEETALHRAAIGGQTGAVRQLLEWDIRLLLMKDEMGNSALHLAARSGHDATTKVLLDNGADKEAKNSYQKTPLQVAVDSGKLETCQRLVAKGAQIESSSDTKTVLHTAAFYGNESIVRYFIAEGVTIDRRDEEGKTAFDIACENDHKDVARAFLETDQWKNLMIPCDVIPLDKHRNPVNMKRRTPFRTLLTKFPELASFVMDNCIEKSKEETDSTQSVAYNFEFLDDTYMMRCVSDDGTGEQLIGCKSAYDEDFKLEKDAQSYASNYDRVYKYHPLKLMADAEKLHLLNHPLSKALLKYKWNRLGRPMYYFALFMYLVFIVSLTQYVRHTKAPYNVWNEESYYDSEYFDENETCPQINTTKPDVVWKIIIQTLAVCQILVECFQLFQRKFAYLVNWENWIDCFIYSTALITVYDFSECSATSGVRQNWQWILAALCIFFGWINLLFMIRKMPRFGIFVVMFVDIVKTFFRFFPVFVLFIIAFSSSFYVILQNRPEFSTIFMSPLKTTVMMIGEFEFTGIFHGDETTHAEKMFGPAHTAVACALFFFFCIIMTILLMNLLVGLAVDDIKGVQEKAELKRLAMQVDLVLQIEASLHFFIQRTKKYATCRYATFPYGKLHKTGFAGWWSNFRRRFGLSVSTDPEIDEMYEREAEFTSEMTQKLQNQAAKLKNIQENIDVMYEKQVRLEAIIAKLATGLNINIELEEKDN
Protocol: (§1) Appropriate HEK293T-derived cells were seeded on collagen-coated glass bottom culture dishes (MatTek Corporation). Cells were loaded with 10 pM of Rhod-3 AM (Life Technology) for 30 min at 37° C. After 30 min they were washed twice with standard Tyrode's solution (135 mM NaCl, 4 mM KCl, 10 mM glucose, 10 mM HEPES, 2 mM CaCl2, and 1 mM MgCl2 at pH=7.4) at room temperature. Calcium imaging was performed on an Olympus BX51WI Axiovert microscope under a 60× objective. Fluorescent images were documented upon sequential excitation with 555 nm followed by 484 nm with a Roper CoolSnap CCD camera. After establishing a baseline 555/484 ratio, methylglyoxal or other agonists were diluted with Tyrode's solution (100 pM or 1 mM final concentration) and were perfused into cells. Images were processed with the MetaFlour (Olympus) software.

[2] = test system: C. elegans; experiment: Swim-bend assay (body bends in liquid media); assay type: in vivo, Caenorhabditis elegans; conditions: N2 animals; 7 mM MGO vs water
[3] = test system: GLOD-4/GLO1; experiment: Glod-4p::gfp expression assay; assay type: in vivo, Caenorhabditis elegans; conditions: EV, skn-1, or trpa-1 RNAi; MGO (7 mM) vs water
Protocol: Transgenic adult animals carrying glod-4p::gfp were assayed. Fluorescent intensity was calculated by background subtraction and quantified for the same region of interest across individual animals. All quantification was done using Image J™ software (//imagei.nih.gov/ii/).

[4] = biological target: T2, TRPA1 (RAT) (Rattus norvegicus, UniProt Q6RI86); experiment: Calcium imaging of HEK293T cells (Rhod-3 AM), rat TRPA1; assay type: cell-based; conditions: HEK293T transfected with rat TRPA1 and GFP; 100 pM or 1 mM MGO
T2 construct: expressed in transfected cells; host or cells: HEK293T
Protocol: as §1

[5] = test system: C. elegans; experiment: Touch assay (touch index, gentle touch)
Protocol: For feeding RNAi bacteria, synchronized L1 larvae were transferred to NGM plates containing 1 mM of isopropyl P-D-1- thiogalactopyranoside/IPTG (referred to as RNAi plates) seeded with 20× concentrated HT1115 bacteria (cultured overnight at 20° C. at 220 rpm), carrying desired plasmid for RNAi of a specific gene or bacteria carrying empty vector pL4440 as control and allowed to grow on plates for 48 h. For drug assays, synchronized L4 larvae were transferred to either 60 mm NGM plates (with or without IPTG), freshly seeded with 5×E. coli OP50-1 or 20× HT1115 RNAi bacteria. Before seeding, the desired drug (or vehicle control) was mixed with the bacteria. Final drug concentrations were calculated considering the total volume of media and bacteria seeded on the NGM plates.
Briefly, each animal was touched alternately in the head region and in the tail with an eyelash. Typically, an omega turn or diversion in head direction resulting from anterior touch was counted as a positive response. Posterior touch response (not counted towards positive response) functioned towards resetting of the response to anterior touch. Touch index (TI) scores were generated by dividing the total number of positive responses over the […] per animal.
Synchronized glod-4 L1 animals were cultured on NGM agar plates seeded with E. coli OP50-1 until L4. […] Post-transfer into wells, animals were fed OP50-1 bacteria ad libitum while incubating at 20° C. on a rocker for 12 h. DMSO was used as control. Post-incubation with drug or DMSO, animals were transferred from wells onto NGM agar plates seeded with OP50-1 bacteria. Touch assay was performed on individual animal and touch index (TI) was calculated for each compound from the library as mentioned earlier.

T2 sequence (Q6RI86 whole entry): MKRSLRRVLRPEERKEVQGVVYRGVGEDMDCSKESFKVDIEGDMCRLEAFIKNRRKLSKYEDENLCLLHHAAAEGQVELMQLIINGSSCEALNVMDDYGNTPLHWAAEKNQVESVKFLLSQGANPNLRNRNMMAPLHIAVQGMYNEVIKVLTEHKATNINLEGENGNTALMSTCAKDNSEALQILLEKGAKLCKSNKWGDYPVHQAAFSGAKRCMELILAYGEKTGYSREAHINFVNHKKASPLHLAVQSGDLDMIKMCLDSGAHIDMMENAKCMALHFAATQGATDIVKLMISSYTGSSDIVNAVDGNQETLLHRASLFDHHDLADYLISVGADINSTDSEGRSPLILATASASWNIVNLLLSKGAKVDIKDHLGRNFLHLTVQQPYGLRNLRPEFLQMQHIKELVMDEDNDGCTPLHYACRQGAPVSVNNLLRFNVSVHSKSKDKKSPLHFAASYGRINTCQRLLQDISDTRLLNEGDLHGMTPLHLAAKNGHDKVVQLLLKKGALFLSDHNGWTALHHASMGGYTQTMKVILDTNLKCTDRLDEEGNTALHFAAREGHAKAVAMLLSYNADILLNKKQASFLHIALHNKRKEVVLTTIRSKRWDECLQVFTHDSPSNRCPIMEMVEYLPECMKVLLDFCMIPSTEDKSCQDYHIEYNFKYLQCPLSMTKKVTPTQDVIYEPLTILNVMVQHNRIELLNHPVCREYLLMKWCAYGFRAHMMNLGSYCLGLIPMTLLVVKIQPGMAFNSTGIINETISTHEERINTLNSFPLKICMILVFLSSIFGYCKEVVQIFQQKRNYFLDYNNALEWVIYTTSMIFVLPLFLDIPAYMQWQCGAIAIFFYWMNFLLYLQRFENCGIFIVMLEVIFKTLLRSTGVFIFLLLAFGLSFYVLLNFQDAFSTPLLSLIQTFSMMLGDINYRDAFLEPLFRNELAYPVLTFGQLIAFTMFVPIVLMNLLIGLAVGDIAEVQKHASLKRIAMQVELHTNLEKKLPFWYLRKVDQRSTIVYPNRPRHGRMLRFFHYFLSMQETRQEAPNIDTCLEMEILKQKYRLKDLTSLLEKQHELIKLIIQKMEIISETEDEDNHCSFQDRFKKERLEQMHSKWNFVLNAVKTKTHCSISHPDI

| Structure (SMILES) | Ca2+ flux (Rhod-3 AM fluorescence ratio 555/484 nm) [1] | Motility (number of body bends in liquid media) [2] | glod-4p::gfp reporter expression (GFP intensity) [3] | Ca2+ flux (Rhod-3 AM fluorescence ratio 555/484 nm) [4] | Touch sensitivity (touch index) ([5]; N2 animals, young adult stage, 7 mM MGO vs water) | Touch sensitivity (touch index), lack of touch sensitivity ([5]; glod-4, day 8 of adulthood, PA (20 pM) vs EtOH control) | Touch sensitivity (touch index), hyperesthesia ([5]; glod-4, young adult stage, PA (20 pM) vs EtOH control) |
| --- | --- | --- | --- | --- | --- | --- | --- |
| CC(=O)C=O [MGO, methylglyoxal] | induce a similar Ca^2+ flux | lower motility | trpa-1- and skn-1 -dependent increase in expression | induce a similar Ca^2+ flux | hyperesthesia | – | – |
| C[C@]1(C(=O)O)CCC[C@]2(C)c3cc(O)ccc3CC[C@@H]12 [PA, podocarpic acid] | – | – | – | – | – | lack of touch sensitivity to wild-type levels | revert the hyperesthesia |
